Data: paper PMC6428052 (Journal of medicinal chemistry, 2018)
pKi: −log10 of the molar value.

Experiments:
[1] = system: 45 receptors, transporters and ion channels; assay: PDSP comprehensive off-target screen; type: binding
H3 = H3 (Homo sapiens, UniProt Q9Y5N1); assay: PDSP off-target binding; details: read-out: Ki, H3
5HT2B = 5HT2B (Homo sapiens, UniProt P41595); assay: PDSP off-target binding; details: read-out: Ki, 5HT2B
hP2Y14R = target: T1, hP2Y14R (Homo sapiens, UniProt Q15391); type: binding; details: for fold less potent than 7 in P2Y14R binding: primary amino sulfonamides with two and four methylenes vs three
T1 sequence (Q15391 1-338): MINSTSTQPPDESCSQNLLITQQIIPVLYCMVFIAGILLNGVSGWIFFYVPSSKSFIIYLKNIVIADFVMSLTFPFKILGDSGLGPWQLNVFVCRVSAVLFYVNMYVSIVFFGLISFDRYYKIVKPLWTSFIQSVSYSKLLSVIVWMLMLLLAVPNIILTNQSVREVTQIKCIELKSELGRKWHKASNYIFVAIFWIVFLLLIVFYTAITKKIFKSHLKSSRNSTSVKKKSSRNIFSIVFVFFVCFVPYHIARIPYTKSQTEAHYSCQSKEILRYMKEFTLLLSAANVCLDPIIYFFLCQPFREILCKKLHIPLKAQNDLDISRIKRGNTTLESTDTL

Plasma stability = details: at 120 min; plasma of three species: human, rat and mouse
[2] = In vivo pharmacokinetics in rat; details: male Sprague Dawley rat, oral administration 1–10 mg/kg
CACO-2 cell = CACO-2 cell permeability; details: CACO-2 cells
[3] = Stability in simulated gastric and intestinal fluids; details: after 240 min
[4] = carboxylate replaced by tetrazole

Sequence of H3 (Q9Y5N1 whole entry): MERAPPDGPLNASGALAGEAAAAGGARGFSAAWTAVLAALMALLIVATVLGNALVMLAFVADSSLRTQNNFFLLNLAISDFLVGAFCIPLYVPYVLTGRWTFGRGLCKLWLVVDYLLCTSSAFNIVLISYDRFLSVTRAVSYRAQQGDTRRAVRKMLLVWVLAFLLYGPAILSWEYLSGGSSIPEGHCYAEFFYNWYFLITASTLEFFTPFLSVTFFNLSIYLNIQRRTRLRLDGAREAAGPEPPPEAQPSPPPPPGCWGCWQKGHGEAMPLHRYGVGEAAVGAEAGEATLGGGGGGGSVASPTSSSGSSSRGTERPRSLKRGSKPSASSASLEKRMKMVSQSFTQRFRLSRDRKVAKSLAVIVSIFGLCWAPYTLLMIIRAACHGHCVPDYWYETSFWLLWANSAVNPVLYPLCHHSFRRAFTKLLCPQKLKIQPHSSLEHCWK
Sequence of 5HT2B (P41595 whole entry, species assumed): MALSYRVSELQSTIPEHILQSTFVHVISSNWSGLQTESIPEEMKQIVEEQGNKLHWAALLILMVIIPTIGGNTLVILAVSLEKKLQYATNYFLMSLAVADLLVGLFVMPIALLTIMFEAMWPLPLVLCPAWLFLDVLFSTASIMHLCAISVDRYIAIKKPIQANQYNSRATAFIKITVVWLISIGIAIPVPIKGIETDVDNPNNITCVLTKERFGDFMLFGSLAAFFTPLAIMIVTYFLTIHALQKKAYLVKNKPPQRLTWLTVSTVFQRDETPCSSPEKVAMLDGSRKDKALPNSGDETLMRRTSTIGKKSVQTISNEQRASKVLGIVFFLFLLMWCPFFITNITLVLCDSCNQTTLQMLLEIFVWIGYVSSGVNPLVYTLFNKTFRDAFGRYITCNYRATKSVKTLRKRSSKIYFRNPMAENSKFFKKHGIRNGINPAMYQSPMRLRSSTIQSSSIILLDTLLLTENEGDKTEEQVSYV

O=C(O)c1cc(O)c2ccc(-c3ccc(C(F)(F)F)cc3)cc2c1 [37d]
Off-target interactions in the comprehensive PDSP screen [1]: bound only to NET

CC(C)(C)OC(=O)NCCCCCCn1cc(CCCCN2CCC(c3ccc(-c4cc(C(=O)O)cc5cc(-c6ccc(C(F)(F)F)cc6)ccc45)cc3)CC2)nn1 [compound 3c, 4-(4-(1-(4-(1-(6-((tert-Butoxycarbonyl)amino)hexyl)-1H-1,2,3-triazol-4-yl)butyl)piperidm-4-yl)phenyl)-7-(4-(trifluoromethyl)phenyl)-2-naphthoic acid]
pKi (H3): 5.56
pKi (5HT2B): 5.56

NCCCCCCn1cc(CCCCN2CCC(c3ccc(-c4cc(C(=O)O)cc5cc(-c6ccc(C(F)(F)F)cc6)ccc45)cc3)CC2)nn1 [compound 3d, 4-(4-(1-(4-(1-(6-Ammohexyl)-1H-1,2,3-triazol-4-yl)butyl)piperidm-4-yl)phenyl)-7-(4-(trifluoromethyl)phenyl)-2-naphthoic acid]
Off-target interactions in the comprehensive PDSP screen [1]: displayed extensive off-target interactions with biogenic amine receptors

NCCNS(=O)(=O)c1ccc(-c2cc(C(=O)O)cc(-n3cc(-c4ccc(C(F)(F)F)cc4)nn3)c2)s1 [compound 5, 3-(5-(N-(2-Aminoethyl)sulfamoyl)thiophen-2-yl)-5-(4-(4-(trifluoromethyl)phenyl)-1H-1,2,3-triazol-1-yl)benzoic acid]
fold less potent than 7 in P2Y14R binding (hP2Y14R): 3 fold

NCCCNS(=O)(=O)c1ccc(-c2cc(C(=O)O)cc(-n3cc(-c4ccc(C(F)(F)F)cc4)nn3)c2)s1 [compound 7, 3-(5-(N-(3-Ammopropyl)sulfamoyl)thiophen-2-yl)-5-(4-(4-(trifluoromethyl)phenyl)-1H-1,2,3-triazol-1-yl)benzoic acid]
fold more potent than its Boc derivative 6 (hP2Y14R): 12 fold

NCCCCNS(=O)(=O)c1ccc(-c2cc(C(=O)O)cc(-n3cc(-c4ccc(C(F)(F)F)cc4)nn3)c2)s1 [compound 9, 3-(5-(N-(4-Ammobutyl)sulfamoyl)thiophen-2-yl)-5-(4-(4-(trifluoromethyl)phenyl)-1H-1,2,3-triazol-1-yl)benzoic acid]
fold less potent than 7 in P2Y14R binding (hP2Y14R): 3 fold

O=C(O)c1cc(-c2ccc(S(=O)(=O)NCCCCO)s2)cc(-n2cc(-c3ccc(C(F)(F)F)cc3)nn2)c1 [compound 10, 3-(5-(N-(4-Hydroxybutyl)sulfamoyl)thiophen-2-yl)-5-(4-(4-(trifluoromethyl)phenyl)-1H-1,2,3-triazol-1-yl)benzoic acid]
fold less potent than primary aminobutyl congener 9 (hP2Y14R): 4 fold

CCN(CC)CC.NS(=O)(=O)c1ccc(-c2cc(C(=O)O)cc(-n3cc(-c4ccc(C(F)(F)F)cc4)nn3)c2)cc1 [compound 16, 4'-Sulfamoyl-5-(4-(4-(trifluoromethyl)phenyl)-1H-1,2,3-triazol-1-yl)-[1,1'-biphenyl]-3-carboxylic acid]
fold more potent than thienyl sulfonamide 13 (hP2Y14R): 10 fold

CC(C)(C)OC(=O)N1CCN(Cc2ccc(-c3cc(C(=O)O)cc(-n4cc(-c5ccc(C(F)(F)F)cc5)nn4)c3)s2)CC1 [compound 17, 3-(5-((4-(tert-Butoxycarbonyl)piperazin-1-yl)methyl)thiophen-2-yl)-5-(4-(4-(trifluoromethyl)phenyl)-1H-1,2,3-triazol-1-yl)benzoic acid]
fold weaker than methylpiperazine 18 (hP2Y14R; Boc derivative vs free amine): 34 fold

NCCCNC(=O)c1ccc(-c2cc(C(=O)O)cc(-n3cc(-c4ccc(C(F)(F)F)cc4)nn3)c2)s1 [compound 20, 3-(5-((3-Aminopropyl)carbamoyl)thiophen-2-yl)-5-(4-(4-(trifluoromethyl)phenyl)-1H-1,2,3-triazol-1-yl)benzoic acid]
Off-target interactions in the comprehensive PDSP screen [1]: did not display extensive off-target interactions with biogenic amine receptors

O=C(O)c1cc(-c2ccc(C(=O)N3CCNCC3)s2)cc(-n2cc(-c3ccc(C(F)(F)F)cc3)nn2)c1 [compound 22, 3-(5-(Piperazine-1-carbonyl)thiophen-2-yl)-5-(4-(4-(trifluoromethyl)phenyl)-1H-1,2,3-triazol-1-yl)benzoic acid]
fold less potent than thienyl sulfonamide 12 (hP2Y14R; cyclic amines): 2 fold

CCN(CC)CC.NC(=O)c1ccc(-c2cc(C(=O)O)cc(-n3cc(-c4ccc(C(F)(F)F)cc4)nn3)c2)o1 [compound 24, 3-(5-Carbamoylfuran-2-yl)-5-(4-(4-(trifluoromethyl)phenyl)-1H-1,2,3-triazol-1-yl)benzoic acid]
fold less potent than carboxamide 30 (hP2Y14R): 10 fold

CCN(CC)CC.NC(=O)c1ccc(-c2cc(C(=O)O)cc(-n3cc(-c4ccc(C(F)(F)F)cc4)nn3)c2)cc1 [compound 30, 4'-Carbamoyl-5-(4-(4-(trifluoromethyl)phenyl)-lH-l,2,3-triazol-l-yl)-[l,l'-biphenyl]-3-carboxylic acid]
remaining in plasma (Plasma stability): 94 – 100 % remaining
oral bioavailability [2]: lack of bioavailability
Off-target interactions in the comprehensive PDSP screen [1]: did not bind appreciably to any other sites
Papp, apical to basal (CACO-2 cell): 0.0 X 10^−6 cm/sec
remaining in simulated gastric fluid [3]: 100 % remaining
remaining in simulated intestinal fluid [3]: 100 % remaining

FC(F)(F)c1ccc(-c2cn(-c3cc(-c4ccc(C5CCNCC5)cc4)cc(-c4nnn[nH]4)c3)nn2)cc1 [compound 35, 4-(3'-(1H-Tetrazol-5-yl)-5'-(4-(4-(trifluoromethyl)phenyl)-1H-1,2,3-triazol-1-yl)-[1,1'-biphenyl]-4-yl)piperidine]
fold reduction of affinity relative to 2a (hP2Y14R; [4]): 30 fold

NCCCNC(=O)c1ccc(-c2cc(-c3nnn[nH]3)cc(-n3cc(-c4ccc(C(F)(F)F)cc4)nn3)c2)s1 [compound 36a, 5-(3-(1#-Tetrazol-5-yl)-5-(4-(4-(trifluoromethyl)phenyl)-1H-1,2,3-triazol-1-yl)phenyl)-N-(3-aminopropyl)thiophene-2-carboxamide]
fold reduction of affinity relative to 20 (hP2Y14R): 7 fold

NC(=O)c1ccc(-c2cc(-c3nnn[nH]3)cc(-n3cc(-c4ccc(C(F)(F)F)cc4)nn3)c2)cc1 [compound 36b, 3'-(1H-Tetrazol-5-yl)-5'-(4-(4-(trifluoromethyl)phenyl)-1H-1,2,3-triazol-1-yl)-[1,1'-biphenyl]-4-carboxamide]
fold less potent than carboxamide 30 (hP2Y14R): 9 fold

CC(C)(C)NC(=O)c1ccc(-c2cc(-c3nnn[nH]3)cc(-n3cc(-c4ccc(C(F)(F)F)cc4)nn3)c2)cc1 [compound 36c, N-(terf-Butyl)-3'-(1H-tetrazol-5-yl)-5'-(4-(4-(trifluoromethyl)phenyl)-1H-1,2,3-triazol-1-yl)-[1,1'-biphenyl]-4-carboxamide]
fold reduction of affinity relative to 34 (hP2Y14R; [4]): 3 fold

O=C(O)c1cc(O)cc(-n2cc(-c3ccc(C(F)(F)F)cc3)nn2)c1 [compound 37a]
fold less potent than carboxamide 30 (hP2Y14R): 60 fold
